From ChEMBL document CHEMBL4507285, “Data for DCP probe MRL-SYKi” (2021)

How the values were obtained:
[1] = target: Death-associated protein kinase 3 (Homo sapiens) (UniProt O43293); details: Compound concentration 100.0 nM
[2] = target: Dual specificity tyrosine-phosphorylation-regulated kinase 1A (Homo sapiens) (UniProt Q13627); details: Compound concentration 100.0 nM
[3] = target: Dual specificity mitogen-activated protein kinase kinase 5 (Homo sapiens) (UniProt Q13163); details: Compound concentration 100.0 nM
[4] = target: Tyrosine-protein kinase ABL2 (Homo sapiens) (UniProt P42684); details: Compound concentration 100.0 nM
[5] = target: Dual specificity tyrosine-phosphorylation-regulated kinase 1B (Homo sapiens) (UniProt Q9Y463); details: Compound concentration 100.0 nM
[6] = target: RAC-beta serine/threonine-protein kinase (Homo sapiens) (UniProt P31751); details: Compound concentration 100.0 nM
[7] = target: 5-hydroxytryptamine receptor 2A (Homo sapiens) (UniProt P28223); details: Compound concentration 10.0 uM
[8] = target: Interleukin-1 receptor-associated kinase 4 (Homo sapiens) (UniProt Q9NWZ3); details: Compound concentration 100.0 nM
[9] = target: Dual specificity protein kinase CLK2 (Homo sapiens) (UniProt P49760); details: Compound concentration 100.0 nM
[10] = target: Mitogen-activated protein kinase 7 (Homo sapiens) (UniProt Q13164); details: Compound concentration 100.0 nM
[11] = target: Tyrosine-protein kinase Lck (Homo sapiens) (UniProt P06239); details: Compound concentration 100.0 nM
[12] = target: 5-hydroxytryptamine receptor 2C (Homo sapiens) (UniProt P28335); details: Compound concentration 10.0 uM
[13] = target: Bone morphogenetic protein receptor type-2 (Homo sapiens) (UniProt Q13873); details: Compound concentration 100.0 nM
[14] = target: Serine/threonine-protein kinase WNK2 (Homo sapiens) (UniProt Q9Y3S1); details: Compound concentration 100.0 nM
[15] = target: Cyclin-dependent kinase 15 (Homo sapiens) (UniProt Q96Q40); details: Compound concentration 100.0 nM
[16] = target: Receptor tyrosine-protein kinase erbB-3 (Homo sapiens) (UniProt P21860); details: Compound concentration 100.0 nM
[17] = target: cGMP-dependent protein kinase 1 (Homo sapiens) (UniProt Q13976); details: Compound concentration 100.0 nM
[18] = target: Tyrosine-protein kinase ABL1 (Homo sapiens) (UniProt P00519); details: Compound concentration 100.0 nM
[19] = target: Alpha-2B adrenergic receptor (Homo sapiens) (UniProt P18089); details: Compound concentration 10.0 uM
[20] = target: Serine/threonine-protein kinase tousled-like 1 (Homo sapiens) (UniProt Q9UKI8); details: Compound concentration 100.0 nM
[21] = test system: Mast/stem cell growth factor receptor Kit (Homo sapiens), P10721 [V559D,V654A]; details: Compound concentration 100.0 nM
[22] = target: Aurora kinase A (Homo sapiens) (UniProt O14965); details: Compound concentration 100.0 nM
[23] = target: Receptor-type tyrosine-protein kinase FLT3 (Homo sapiens) (UniProt P36888); details: Compound concentration 100.0 nM
[24] = target: Serine/threonine-protein kinase PAK 3 (Homo sapiens) (UniProt O75914); details: Compound concentration 100.0 nM
[25] = target: Myosin light chain kinase (Homo sapiens) (UniProt Q32MK0); details: Compound concentration 100.0 nM
[26] = target: MAP/microtubule affinity-regulating kinase 3 (Homo sapiens) (UniProt P27448); details: Compound concentration 100.0 nM
[27] = target: 5'-AMP-activated protein kinase catalytic subunit alpha-2 (Homo sapiens) (UniProt P54646); details: Compound concentration 100.0 nM
[28] = target: Rhodopsin kinase GRK7 (Homo sapiens) (UniProt Q8WTQ7); details: Compound concentration 100.0 nM
[29] = target: Phosphorylase b kinase regulatory subunit alpha, liver isoform (Homo sapiens) (UniProt P46019); details: Compound concentration 100.0 nM
[30] = target: Serine/threonine-protein kinase SIK3 (Homo sapiens) (UniProt Q9Y2K2); details: Compound concentration 100.0 nM
[31] = target: Vascular endothelial growth factor receptor 1 (Homo sapiens) (UniProt P17948); details: Compound concentration 100.0 nM
[32] = target: SRSF protein kinase 2 (Homo sapiens) (UniProt P78362); details: Compound concentration 100.0 nM
[33] = target: Ephrin type-A receptor 4 (Homo sapiens) (UniProt P54764); details: Compound concentration 100.0 nM
[34] = target: Calcium/calmodulin-dependent protein kinase type II subunit beta (Homo sapiens) (UniProt Q13554); details: Compound concentration 100.0 nM
LIM domain kinase 1 = LIM domain kinase 1 (Homo sapiens, UniProt P53667); details: Compound concentration 100.0 nM
[35] = target: 5-hydroxytryptamine receptor 2B (Homo sapiens, UniProt P41595); details: Compound concentration 10.0 uM
[36] = target: Proto-oncogene tyrosine-protein kinase Src (Homo sapiens, UniProt P12931); details: Compound concentration 100.0 nM
[37] = test system: Epidermal growth factor receptor (Homo sapiens), P00533 [UNDEFINED MUTATION]; details: Compound concentration 100.0 nM
[38] = test system: Epidermal growth factor receptor (Homo sapiens), P00533 [UNDEFINED MUTATION]; details: Compound concentration 100.0 nM; remark: listed apart in the source
[39] = target: Serine/threonine-protein kinase pim-3 (Homo sapiens) (UniProt Q86V86); details: Compound concentration 100.0 nM
[40] = target: TGF-beta receptor type-1 (Homo sapiens) (UniProt P36897); details: Compound concentration 100.0 nM
[41] = target: Serine/threonine-protein kinase pim-2 (Homo sapiens) (UniProt Q9P1W9); details: Compound concentration 100.0 nM
[42] = target: Atypical kinase COQ8B, mitochondrial (Homo sapiens) (UniProt Q96D53); details: Compound concentration 100.0 nM
[43] = target: Serine/threonine-protein kinase Nek1 (Homo sapiens) (UniProt Q96PY6); details: Compound concentration 100.0 nM
[44] = target: Fibroblast growth factor receptor 4 (Homo sapiens) (UniProt P22455); details: Compound concentration 100.0 nM

Sequence of Epidermal growth factor receptor (Homo sapiens), P00533 [UNDEFINED MUTATION] (P00533 whole entry, looked up, change not shown): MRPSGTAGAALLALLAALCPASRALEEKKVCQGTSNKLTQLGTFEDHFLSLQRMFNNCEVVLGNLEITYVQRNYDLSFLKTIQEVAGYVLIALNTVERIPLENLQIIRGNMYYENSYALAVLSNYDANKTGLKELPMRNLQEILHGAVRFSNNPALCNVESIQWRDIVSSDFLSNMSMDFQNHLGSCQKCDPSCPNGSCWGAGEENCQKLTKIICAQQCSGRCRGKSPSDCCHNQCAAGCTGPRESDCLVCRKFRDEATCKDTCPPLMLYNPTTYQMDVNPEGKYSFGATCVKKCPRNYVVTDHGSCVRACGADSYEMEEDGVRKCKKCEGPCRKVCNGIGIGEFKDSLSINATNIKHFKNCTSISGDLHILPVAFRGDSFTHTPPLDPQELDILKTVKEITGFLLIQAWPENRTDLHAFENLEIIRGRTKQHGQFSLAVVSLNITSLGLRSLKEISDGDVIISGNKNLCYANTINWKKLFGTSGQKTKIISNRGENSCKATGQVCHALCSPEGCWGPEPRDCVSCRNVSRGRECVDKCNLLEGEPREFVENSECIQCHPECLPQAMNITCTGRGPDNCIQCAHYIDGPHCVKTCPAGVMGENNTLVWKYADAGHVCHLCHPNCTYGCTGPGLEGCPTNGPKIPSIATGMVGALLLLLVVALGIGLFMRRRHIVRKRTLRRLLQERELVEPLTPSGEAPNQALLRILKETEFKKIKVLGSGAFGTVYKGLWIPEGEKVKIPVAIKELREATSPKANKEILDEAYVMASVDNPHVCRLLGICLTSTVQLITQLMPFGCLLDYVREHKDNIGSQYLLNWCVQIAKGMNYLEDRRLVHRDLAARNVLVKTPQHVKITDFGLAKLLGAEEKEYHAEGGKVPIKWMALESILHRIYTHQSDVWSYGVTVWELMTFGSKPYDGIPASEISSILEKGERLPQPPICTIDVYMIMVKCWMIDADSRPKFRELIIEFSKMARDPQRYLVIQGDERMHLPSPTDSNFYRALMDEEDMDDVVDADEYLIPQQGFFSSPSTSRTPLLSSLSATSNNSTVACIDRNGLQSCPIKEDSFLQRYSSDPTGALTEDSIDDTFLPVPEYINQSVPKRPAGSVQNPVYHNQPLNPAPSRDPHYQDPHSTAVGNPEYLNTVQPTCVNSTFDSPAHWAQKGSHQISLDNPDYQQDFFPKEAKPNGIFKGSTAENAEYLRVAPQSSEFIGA
Sequence of RAC-beta serine/threonine-protein kinase (Homo sapiens) (P31751 whole entry): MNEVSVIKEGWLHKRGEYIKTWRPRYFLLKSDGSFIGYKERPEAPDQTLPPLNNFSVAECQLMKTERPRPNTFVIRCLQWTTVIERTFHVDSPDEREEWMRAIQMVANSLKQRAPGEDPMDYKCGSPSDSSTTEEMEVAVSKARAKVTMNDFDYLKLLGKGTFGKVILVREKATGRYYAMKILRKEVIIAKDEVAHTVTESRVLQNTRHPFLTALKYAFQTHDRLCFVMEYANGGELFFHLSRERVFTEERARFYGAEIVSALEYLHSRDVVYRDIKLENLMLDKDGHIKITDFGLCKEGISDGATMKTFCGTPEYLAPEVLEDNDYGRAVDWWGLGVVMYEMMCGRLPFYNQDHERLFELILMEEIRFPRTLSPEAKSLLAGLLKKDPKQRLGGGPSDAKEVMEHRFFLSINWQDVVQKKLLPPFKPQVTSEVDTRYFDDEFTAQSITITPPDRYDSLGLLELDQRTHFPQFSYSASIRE
Sequence of Aurora kinase A (Homo sapiens) (O14965 whole entry): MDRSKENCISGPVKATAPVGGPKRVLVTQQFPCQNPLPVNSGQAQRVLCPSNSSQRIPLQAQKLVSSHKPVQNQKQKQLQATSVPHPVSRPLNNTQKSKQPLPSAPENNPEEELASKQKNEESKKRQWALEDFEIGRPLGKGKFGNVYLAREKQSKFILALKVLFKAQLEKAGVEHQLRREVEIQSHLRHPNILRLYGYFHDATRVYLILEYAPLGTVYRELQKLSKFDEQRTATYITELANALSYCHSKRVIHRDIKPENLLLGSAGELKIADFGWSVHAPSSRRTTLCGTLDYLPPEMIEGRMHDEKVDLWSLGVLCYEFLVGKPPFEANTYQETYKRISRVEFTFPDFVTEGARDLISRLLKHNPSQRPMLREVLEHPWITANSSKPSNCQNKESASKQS
Sequence of Myosin light chain kinase (Homo sapiens) (Q32MK0 whole entry): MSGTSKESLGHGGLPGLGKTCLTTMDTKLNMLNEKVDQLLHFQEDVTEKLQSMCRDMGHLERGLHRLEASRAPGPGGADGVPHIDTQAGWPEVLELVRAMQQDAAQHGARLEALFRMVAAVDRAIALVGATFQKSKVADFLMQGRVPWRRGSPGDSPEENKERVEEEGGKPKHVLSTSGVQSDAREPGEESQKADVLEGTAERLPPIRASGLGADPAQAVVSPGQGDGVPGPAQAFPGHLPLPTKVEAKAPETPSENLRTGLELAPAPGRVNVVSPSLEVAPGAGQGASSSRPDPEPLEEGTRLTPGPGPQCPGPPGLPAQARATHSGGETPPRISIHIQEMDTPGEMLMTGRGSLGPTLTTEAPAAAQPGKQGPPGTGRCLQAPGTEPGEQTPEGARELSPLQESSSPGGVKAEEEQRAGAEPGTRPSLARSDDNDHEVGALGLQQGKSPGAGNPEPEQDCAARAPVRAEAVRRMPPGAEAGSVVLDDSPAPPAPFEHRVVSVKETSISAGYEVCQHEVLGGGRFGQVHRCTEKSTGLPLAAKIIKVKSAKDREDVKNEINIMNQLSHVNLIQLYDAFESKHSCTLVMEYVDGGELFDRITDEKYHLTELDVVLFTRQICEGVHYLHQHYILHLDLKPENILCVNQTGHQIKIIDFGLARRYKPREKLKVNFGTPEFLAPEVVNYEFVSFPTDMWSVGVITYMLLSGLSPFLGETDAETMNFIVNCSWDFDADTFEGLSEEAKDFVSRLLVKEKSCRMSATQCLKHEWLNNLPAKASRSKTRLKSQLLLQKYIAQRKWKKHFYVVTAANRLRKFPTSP
Sequence of 5-hydroxytryptamine receptor 2C (Homo sapiens) (P28335 whole entry): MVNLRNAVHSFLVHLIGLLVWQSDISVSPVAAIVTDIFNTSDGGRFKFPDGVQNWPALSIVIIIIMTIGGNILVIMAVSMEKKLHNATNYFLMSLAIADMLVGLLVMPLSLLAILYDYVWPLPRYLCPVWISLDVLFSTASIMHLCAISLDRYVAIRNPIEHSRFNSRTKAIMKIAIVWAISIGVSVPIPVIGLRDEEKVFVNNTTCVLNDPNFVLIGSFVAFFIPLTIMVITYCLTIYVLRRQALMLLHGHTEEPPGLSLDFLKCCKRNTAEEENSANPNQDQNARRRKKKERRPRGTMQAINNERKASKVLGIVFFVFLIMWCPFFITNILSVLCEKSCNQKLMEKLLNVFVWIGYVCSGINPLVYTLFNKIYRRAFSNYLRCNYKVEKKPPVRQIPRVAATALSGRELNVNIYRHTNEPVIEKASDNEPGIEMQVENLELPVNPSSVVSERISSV
Sequence of LIM domain kinase 1 (P53667 whole entry, looked up, the tested form may be a part): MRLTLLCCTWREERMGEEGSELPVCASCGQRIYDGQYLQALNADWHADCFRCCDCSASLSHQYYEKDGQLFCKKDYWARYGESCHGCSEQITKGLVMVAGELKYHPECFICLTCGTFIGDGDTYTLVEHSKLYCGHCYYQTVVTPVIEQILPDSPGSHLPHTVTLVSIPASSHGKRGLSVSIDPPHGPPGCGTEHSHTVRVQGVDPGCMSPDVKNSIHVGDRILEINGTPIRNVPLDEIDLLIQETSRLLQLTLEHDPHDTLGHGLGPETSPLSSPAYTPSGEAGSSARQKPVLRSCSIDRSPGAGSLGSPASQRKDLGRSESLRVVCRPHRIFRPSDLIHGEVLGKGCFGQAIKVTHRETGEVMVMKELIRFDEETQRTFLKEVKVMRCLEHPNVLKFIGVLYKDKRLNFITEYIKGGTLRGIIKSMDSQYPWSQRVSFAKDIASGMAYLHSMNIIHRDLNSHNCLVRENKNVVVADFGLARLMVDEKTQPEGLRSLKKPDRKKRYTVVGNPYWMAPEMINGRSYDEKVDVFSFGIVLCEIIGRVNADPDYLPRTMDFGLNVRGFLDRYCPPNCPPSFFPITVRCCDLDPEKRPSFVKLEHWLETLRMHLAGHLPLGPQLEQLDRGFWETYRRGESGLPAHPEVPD
Sequence of Serine/threonine-protein kinase PAK 3 (Homo sapiens) (O75914 whole entry, looked up): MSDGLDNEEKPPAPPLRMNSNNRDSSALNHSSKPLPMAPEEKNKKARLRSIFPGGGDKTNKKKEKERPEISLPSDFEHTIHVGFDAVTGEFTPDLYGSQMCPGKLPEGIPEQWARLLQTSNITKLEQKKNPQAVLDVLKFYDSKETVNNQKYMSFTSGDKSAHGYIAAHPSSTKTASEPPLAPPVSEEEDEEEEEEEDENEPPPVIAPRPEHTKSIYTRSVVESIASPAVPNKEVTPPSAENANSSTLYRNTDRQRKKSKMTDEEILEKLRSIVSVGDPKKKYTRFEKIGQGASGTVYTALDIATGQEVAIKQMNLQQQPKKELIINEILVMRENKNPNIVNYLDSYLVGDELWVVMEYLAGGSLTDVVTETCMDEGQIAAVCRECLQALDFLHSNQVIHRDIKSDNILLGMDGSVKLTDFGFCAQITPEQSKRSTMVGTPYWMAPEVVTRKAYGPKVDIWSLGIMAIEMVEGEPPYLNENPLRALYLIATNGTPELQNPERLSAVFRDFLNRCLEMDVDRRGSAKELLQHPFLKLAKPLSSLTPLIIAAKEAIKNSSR
Sequence of Death-associated protein kinase 3 (Homo sapiens) (O43293 whole entry, looked up): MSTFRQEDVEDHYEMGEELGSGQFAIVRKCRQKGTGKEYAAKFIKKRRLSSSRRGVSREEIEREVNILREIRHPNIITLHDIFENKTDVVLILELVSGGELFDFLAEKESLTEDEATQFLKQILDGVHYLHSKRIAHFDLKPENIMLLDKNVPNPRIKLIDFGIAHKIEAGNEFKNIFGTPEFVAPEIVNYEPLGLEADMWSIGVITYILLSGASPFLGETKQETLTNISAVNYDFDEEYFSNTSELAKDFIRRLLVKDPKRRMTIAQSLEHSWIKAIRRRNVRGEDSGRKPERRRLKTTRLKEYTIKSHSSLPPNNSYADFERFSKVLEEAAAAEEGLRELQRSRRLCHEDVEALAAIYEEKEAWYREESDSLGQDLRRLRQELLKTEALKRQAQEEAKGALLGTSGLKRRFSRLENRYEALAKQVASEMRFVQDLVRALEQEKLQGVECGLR

Cc1ccc(-c2cnc([C@@]3(O)CC[C@H](C(=O)O)C(C)(C)C3)s2)cc1Nc1cccc(C(F)(F)F)n1 [MRL-SYKi-NC]
inactive: residual activity [1] 92.7% | residual activity [2] 81.4% | residual activity [3] 85.2% | residual activity [4] 98.3% | residual activity [5] 97.4% | residual activity [6] 100% | inhibition [7] 11.2% | residual activity [9] 100% | residual activity [10] 100% | residual activity [11] 100% | inhibition [12] 4.21% | residual activity [13] 54.9% | residual activity [14] 98.6% | residual activity [15] 89.7% | residual activity [16] 100% | residual activity [17] 77.5% | residual activity [18] 78.4% | inhibition [19] 27% | residual activity [20] 100% | residual activity [21] 100% | residual activity [22] 60.2% | residual activity [23] 100% | residual activity [24] 76.3% | residual activity [25] 90.9% | residual activity [26] 100% | residual activity [27] 94.7% | residual activity [28] 75.4% | residual activity [29] 100% | residual activity [30] 100% | residual activity [31] 97.7% | residual activity [32] 91.9% | residual activity [33] 100% | residual activity [34] 95.3% | residual activity (LIM domain kinase 1) 100% | residual activity [36] 100% | residual activity [37] 67.1% | residual activity [38] 100% | residual activity [39] 89.2% | residual activity [40] 83% | residual activity [41] 87.9% | residual activity [42] 98.7% | residual activity [43] 67.1% | residual activity [44] 100%
active: residual activity [8] 48.8% | inhibition [35] 77.9%

Cc1cc(Nc2nccc(C)n2)cc(-c2cnc([C@@]3(O)CC[C@H](C(=O)O)C(C)(C)C3)s2)c1 [MRL-SYKi]
active: residual activity [3] 25.2% | residual activity [18] 45.3%
inactive: residual activity [1] 100% | residual activity [2] 100% | residual activity [4] 85.8% | residual activity [5] 69.4% | residual activity [6] 100% | inhibition [7] -4.23% | residual activity [8] 100% | residual activity [9] 98% | residual activity [10] 83.6% | residual activity [11] 73% | inhibition [12] 3.02% | residual activity [13] 100% | residual activity [14] 81.2% | residual activity [15] 100% | residual activity [16] 66.6% | residual activity [17] 100% | inhibition [19] -7.14% | residual activity [20] 100% | residual activity [21] 100% | residual activity [22] 100% | residual activity [23] 100% | residual activity [24] 100% | residual activity [25] 100% | residual activity [26] 100% | residual activity [27] 100% | residual activity [28] 100% | residual activity [29] 100% | residual activity [30] 100% | residual activity [31] 100% | residual activity [32] 100% | residual activity [33] 78.6% | residual activity [34] 100% | residual activity (LIM domain kinase 1) 93.1% | inhibition [35] 6.38% | residual activity [36] 53.7% | residual activity [37] 67.7% | residual activity [38] 74% | residual activity [39] 100% | residual activity [40] 68.4% | residual activity [41] 100% | residual activity [42] 99.4% | residual activity [43] 100% | residual activity [44] 100%
